Reference: patent US6699834B1, “Method for treating cancer” (University of Maryland Biotechnology Institute, priority 1997, dated 2004)
Bridge positions count the residues as written; N and C are the ends. Ends that are not written are not given here.

Columns and labels:
[1] = test system: HIV RNA and protein expression; test: HIV RNA and protein expression in HIV-1 transgenic mice; assay type: in vivo
[2] = test system: hematopoietic progenitor cells; test: Hematopoietic progenitor clonogenic assays (CFU-GEMM, BFU-e, CFU-GM); assay type: cell-based, human
Method in brief: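 Normal bone marrow and cord blood progenitors (2×10^5 cells/ml) grown in methylcellulose with hCG preparations at 200 IU/ml or α/β-subunits and peptides at 100 μg/ml. Colonies (aggregates >50 cells) counted after 10 days of culture.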

## 4. Circ 44-57: β-hCG 44-57 with cysteine substituted at position 44, circularized via disulfide bond (SEQ ID NO:26) (CLQGVLPALPQVVC; disulfide 1-14 (inferred))
[1]; inhibition of HIV RNA and protein expression in HIV-1 transgenic mice
  inhibition of HIV RNA and protein expression: +++ (“+++” represents greater than 70% effect)
[1]; pups dosed via mother's milk
  HIV-1 gene / protein expression in transgenic mice (in words): considerable inhibition
HIV-1
  inhibition of HIV-1 infection/replication in vitro (in words): inhibit HIV-1 replication in vitro
HIV-1; inhibition of HIV-1 replication in vitro (HIV-1 strains and HIV-1 primary isolates)
  HIV in vitro Inhibition: +++ (“+++” represents greater than 70% effect)
[2]; listed as circularized 44-57
  promotion of hematopoiesis (in words): directly promoted
[2]; listed as cyclized β-hCG peptide of amino acids 44-57
  promotion of hematopoiesis (in words): pro-hematopoietic activity
[2]; relative increase of hematopoietic colony cell number, hCG preparations 200 IU/ml, subunits and peptides 100 μg/ml
  Pro-hematopoiesis in vitro Enhancement: +++ (“+++” represents greater than 70% effect)
